Reference: ChEMBL document CHEMBL1201862, “PubChem BioAssay data set” (2004)
Calls of active or inactive are those of the source.

Key:
[1] = target: Voltage-dependent T-type calcium channel subunit alpha-1H (Homo sapiens, UniProt O95180); assay type: functional;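 also: channel activity triggered by adding a high calcium stimulation buffer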
CAAX prenyl protease 2 = target: T1, CAAX prenyl protease 2 (Saccharomyces cerevisiae S288c, UniProt Q03530); assay type: biochemical
T1 sequence (Q03530 whole entry): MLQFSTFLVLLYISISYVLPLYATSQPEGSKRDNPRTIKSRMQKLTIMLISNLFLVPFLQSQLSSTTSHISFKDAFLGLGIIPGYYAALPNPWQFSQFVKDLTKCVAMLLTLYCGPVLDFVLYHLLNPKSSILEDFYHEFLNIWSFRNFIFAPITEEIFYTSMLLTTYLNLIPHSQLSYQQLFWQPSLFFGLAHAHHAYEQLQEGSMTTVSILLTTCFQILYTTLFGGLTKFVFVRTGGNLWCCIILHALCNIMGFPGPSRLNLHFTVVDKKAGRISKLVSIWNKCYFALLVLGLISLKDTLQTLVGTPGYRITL

HEK293 [2] = assay: cells; assay type: functional, cell-based; conditions: Homo sapiens
HEK293 [3] = assay: cells; assay type: functional, cell-based; conditions: Homo sapiens; remark: listed apart in the source
HEK293 [4] = assay: NOD1 signaling inhibitors, primary screen, cell-based, luminescence, uHTS (AID 1578); assay type: functional; conditions: Homo sapiens
HEK293 [5] = assay: cells; assay type: functional, cell-based; conditions: Homo sapiens; remark: listed apart in the source
NS3 = NS3 (Hepatitis C virus, UniProt A3EZJ3); assay: PubChem AID 2173; parameters: species or system Hepacivirus hominis
[6] = target: Nucleotide-binding oligomerization domain-containing protein 2 (Homo sapiens, UniProt Q9HC29); assay: NOD2 signaling inhibitors, cell-based, luminescence, uHTS, HEK293 (AID 1566); assay type: functional
[7] = target: Luciferin 4-monooxygenase (Photinus pyralis, UniProt P08659); assay: firefly luciferase enzyme inhibitors, dose response, biochemical, luminescence (AID 1891)
[8] = target: Cyclin-dependent kinase 5/CDK5 activator 1 (Homo sapiens, UniProt Q00535); assay: CDK5/p35 kinase inhibitors, dose response, biochemical, cherry-picked samples, set 2 (AID 504545)
[9] = target: T2, Type-1 angiotensin II receptor (Homo sapiens, UniProt P30556); assay: AT1 receptor antagonists, dose response, selectivity assay for APJ receptor antagonist project, cell-based, uHTS hits (AID 463214); assay type: functional;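 also: antagonist potency against angiotensin II stimulated AT1 response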
T2 sequence (P30556 whole entry): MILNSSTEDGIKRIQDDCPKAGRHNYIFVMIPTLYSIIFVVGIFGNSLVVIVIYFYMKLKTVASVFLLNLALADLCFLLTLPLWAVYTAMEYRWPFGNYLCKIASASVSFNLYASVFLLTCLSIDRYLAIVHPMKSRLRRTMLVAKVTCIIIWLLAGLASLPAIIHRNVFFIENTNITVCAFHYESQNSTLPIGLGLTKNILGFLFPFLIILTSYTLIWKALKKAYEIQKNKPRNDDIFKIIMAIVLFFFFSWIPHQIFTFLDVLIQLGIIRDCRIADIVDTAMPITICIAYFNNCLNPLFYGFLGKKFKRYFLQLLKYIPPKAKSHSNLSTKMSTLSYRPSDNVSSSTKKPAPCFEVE

[10] = target: T3, Ubiquitin-conjugating enzyme E2 N (Homo sapiens, UniProt P61088); assay type: functional;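 also: Dose-response confirmation in a TR-FRET assay detecting UBC13-driven polyubiquitin chain formation, inhibition measured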
T3 sequence (P61088 whole entry): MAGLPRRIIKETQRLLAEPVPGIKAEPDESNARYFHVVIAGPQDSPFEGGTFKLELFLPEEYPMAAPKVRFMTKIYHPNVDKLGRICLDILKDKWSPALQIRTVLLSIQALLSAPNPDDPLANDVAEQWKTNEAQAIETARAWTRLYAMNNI

[11] = Luminescence Cell-Based Dose Retest to Confirm Inhibitors of Cancer Stem Cells. [Related pubchem assays (depositor defined):AID2717, AID2721]; assay type: functional, Homo sapiens; conditions: Homo sapiens
[12] = A Cell Based Secondary Assay To Explore Cytotoxicity of Compounds that Sensitize Mycobacterium Tuberculosis to Beta-Lactam Antibiotics.; assay type: functional
Beta-galactosidase = Beta-galactosidase (Escherichia coli, UniProt Q8VNN2); assay: PubChem AID 485352; assay type: functional
Vero [13] = assay: Vero cell cytotoxicity, cytotoxicity control for flavivirus capping enzyme inhibitors (AID 588742); assay type: functional; conditions: Chlorocebus sabaeus
Nonstructural protein 1 = Nonstructural protein 1 (Influenza A virus, UniProt Q194T2); assay type: functional, Influenza A virus (A/California/07/2009(H1N1))
Vero [14] = assay: cells; assay type: functional; conditions: Chlorocebus sabaeus
[15] = target: Neurotensin receptor type 1 (Homo sapiens, UniProt P30989); assay type: functional;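 also: Image-based confirmatory dose-response assay measuring agonist activity at NTR1; NTR1-expressing U2OS osteosarcoma cells imaged for beta-arrestin GFP spot formation; agonist potency where compounds increase beta-arrestin recruitment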
Genome polyprotein = Genome polyprotein (dengue virus type 2, UniProt P29990); assay: Dengue-2 NS5 methyltransferase inhibitors, primary screen, biochemical, confirmation dose response (AID 588689); assay type: functional
Hexokinase = target: T4, Hexokinase (Trypanosoma brucei, UniProt Q38C41); assay: Confirmation assay for inhibitors of Trypanosoma brucei hexokinase 1-Analogue-first series. [Related pubchem assays (depositor defined):AID1430, AID1632, AID2516, AID2560, AID2579, AID2600, AID449725, AID492951]; assay type: functional
T4 sequence (Q38C41 whole entry): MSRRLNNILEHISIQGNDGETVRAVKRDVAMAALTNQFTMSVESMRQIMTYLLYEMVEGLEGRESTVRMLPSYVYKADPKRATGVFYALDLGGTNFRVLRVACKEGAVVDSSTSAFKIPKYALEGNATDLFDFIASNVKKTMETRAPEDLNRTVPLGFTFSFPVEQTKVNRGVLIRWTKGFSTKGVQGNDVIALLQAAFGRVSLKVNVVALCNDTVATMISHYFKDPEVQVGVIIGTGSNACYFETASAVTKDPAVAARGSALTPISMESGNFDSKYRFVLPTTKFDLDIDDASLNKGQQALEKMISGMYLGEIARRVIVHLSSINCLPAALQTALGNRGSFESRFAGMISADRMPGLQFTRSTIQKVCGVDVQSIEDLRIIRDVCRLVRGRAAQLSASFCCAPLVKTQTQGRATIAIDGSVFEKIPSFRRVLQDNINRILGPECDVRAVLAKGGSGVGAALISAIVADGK

[16] = target: T5, Phosphoethanolamine/phosphocholine phosphatase (Homo sapiens, UniProt Q8TCT1); assay: SAR assay for compounds that inhibit PHOSPHO1. [Related pubchem assays (depositor defined):AID1545, AID1565, AID1574]
T5 sequence (Q8TCT1 whole entry): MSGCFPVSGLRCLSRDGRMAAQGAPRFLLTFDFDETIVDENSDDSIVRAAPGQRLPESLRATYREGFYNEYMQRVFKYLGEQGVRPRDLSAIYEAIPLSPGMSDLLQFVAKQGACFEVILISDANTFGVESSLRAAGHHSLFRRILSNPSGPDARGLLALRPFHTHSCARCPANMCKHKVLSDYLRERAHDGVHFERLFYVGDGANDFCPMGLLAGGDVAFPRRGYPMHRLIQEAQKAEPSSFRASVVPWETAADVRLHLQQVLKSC

HeLa = assay: HeLa cell cytotoxicity, dose response, cytotoxicity control, 24 h, cherry-picked samples (AID 504726); assay type: functional, cell-based; conditions: Homo sapiens;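 also: potency for cytotoxicity as loss of luminescence signal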
[17] = target: DNA dC->dU-editing enzyme APOBEC-3G (Homo sapiens, UniProt Q9HC16); assay: Dose Response confirmation of small molecule APOBEC3G DNA Deaminase Inhibitors via a fluorescence-based single-stranded DNA deaminase assay. [Related pubchem assays (depositor defined):AID493012, AID493028]; assay type: functional
[18] = Vero E6 cell cytotoxicity, dose response, cytotoxicity control for non-replicating M. tuberculosis project, secondary assay (AID 492998); assay type: functional, VeroE6; conditions: Vero C1008
[19] = THP-1 cell cytotoxicity, dose response, cytotoxicity control for non-replicating M. tuberculosis project (AID 489025); assay type: functional
[20] = HepG2 cell cytotoxicity, dose response, cytotoxicity control for non-replicating M. tuberculosis project (AID 489018); assay type: functional; conditions: Mycobacterium tuberculosis
cells = assay type: functional
Streptokinase A = target: T6, Streptokinase A (Streptococcus pyogenes serotype M1, UniProt P10520); assay: S. pyogenes streptokinase expression inhibitors, potency, dose response, plasminogen activation absorbance, OD405 (AID 1914); assay type: functional, Streptococcus pyogenes M1 GAS;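 also: secreted streptokinase activity via plasminogen activation per viability signal from cell pellet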
T6 sequence (P10520 whole entry): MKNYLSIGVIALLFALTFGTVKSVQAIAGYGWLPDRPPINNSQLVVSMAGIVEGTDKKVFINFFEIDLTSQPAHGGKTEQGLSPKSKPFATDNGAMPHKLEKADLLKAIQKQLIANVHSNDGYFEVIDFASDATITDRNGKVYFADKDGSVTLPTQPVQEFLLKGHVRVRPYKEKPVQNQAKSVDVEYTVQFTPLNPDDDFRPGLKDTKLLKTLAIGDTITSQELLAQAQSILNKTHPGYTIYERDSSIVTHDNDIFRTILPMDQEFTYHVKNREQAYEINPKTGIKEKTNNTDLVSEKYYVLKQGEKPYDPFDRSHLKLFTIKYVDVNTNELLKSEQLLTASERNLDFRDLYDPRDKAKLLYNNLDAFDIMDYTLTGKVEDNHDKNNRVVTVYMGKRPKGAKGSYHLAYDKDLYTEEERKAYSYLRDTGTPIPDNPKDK

[21] = target: T7, Microphthalmia-associated transcription factor (Homo sapiens, UniProt O75030); assay: TRPM1 promoter luciferase signal decrease, dose response, MITF inhibitor project, cell-based, SK-MEL-5, cherry-picked, set 3 (AID 493073); assay type: functional
T7 sequence (O75030 whole entry): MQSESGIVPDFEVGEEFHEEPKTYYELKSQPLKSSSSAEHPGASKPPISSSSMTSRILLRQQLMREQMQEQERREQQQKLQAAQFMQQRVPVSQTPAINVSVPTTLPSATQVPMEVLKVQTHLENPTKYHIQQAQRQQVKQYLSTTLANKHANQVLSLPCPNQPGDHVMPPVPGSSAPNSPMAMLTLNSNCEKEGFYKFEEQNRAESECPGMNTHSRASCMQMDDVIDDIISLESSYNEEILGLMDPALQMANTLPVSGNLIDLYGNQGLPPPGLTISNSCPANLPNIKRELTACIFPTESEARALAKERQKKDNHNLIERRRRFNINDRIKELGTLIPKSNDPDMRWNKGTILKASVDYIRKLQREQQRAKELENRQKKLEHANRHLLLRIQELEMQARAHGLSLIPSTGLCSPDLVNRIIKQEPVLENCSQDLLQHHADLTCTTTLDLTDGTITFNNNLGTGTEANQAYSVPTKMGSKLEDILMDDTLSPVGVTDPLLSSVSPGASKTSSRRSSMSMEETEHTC

[22] = microbe, parasite or virus in culture; assay type: functional; conditions: Mycobacterium tuberculosis
Streptococcus = assay: Group A Streptococcus viability loss, dose response, counter-screen for streptokinase expression inhibitor project, luminescence, BacTiterGlo (AID 1915); assay type: functional, organism-based;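 also: potency for reduction of bacterial viability or growth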
[23] = system: Streptococcus sp. 'group A'; assay: growth inhibition of control SK(-) GAS strain, dose response, counter-screen for streptokinase expression inhibitor project, luminescence, kanamycin, BacTiterGlo, confirmation (AID 1900); assay type: functional, organism-based

Sequence of Voltage-dependent T-type calcium channel subunit alpha-1H (O95180 whole entry): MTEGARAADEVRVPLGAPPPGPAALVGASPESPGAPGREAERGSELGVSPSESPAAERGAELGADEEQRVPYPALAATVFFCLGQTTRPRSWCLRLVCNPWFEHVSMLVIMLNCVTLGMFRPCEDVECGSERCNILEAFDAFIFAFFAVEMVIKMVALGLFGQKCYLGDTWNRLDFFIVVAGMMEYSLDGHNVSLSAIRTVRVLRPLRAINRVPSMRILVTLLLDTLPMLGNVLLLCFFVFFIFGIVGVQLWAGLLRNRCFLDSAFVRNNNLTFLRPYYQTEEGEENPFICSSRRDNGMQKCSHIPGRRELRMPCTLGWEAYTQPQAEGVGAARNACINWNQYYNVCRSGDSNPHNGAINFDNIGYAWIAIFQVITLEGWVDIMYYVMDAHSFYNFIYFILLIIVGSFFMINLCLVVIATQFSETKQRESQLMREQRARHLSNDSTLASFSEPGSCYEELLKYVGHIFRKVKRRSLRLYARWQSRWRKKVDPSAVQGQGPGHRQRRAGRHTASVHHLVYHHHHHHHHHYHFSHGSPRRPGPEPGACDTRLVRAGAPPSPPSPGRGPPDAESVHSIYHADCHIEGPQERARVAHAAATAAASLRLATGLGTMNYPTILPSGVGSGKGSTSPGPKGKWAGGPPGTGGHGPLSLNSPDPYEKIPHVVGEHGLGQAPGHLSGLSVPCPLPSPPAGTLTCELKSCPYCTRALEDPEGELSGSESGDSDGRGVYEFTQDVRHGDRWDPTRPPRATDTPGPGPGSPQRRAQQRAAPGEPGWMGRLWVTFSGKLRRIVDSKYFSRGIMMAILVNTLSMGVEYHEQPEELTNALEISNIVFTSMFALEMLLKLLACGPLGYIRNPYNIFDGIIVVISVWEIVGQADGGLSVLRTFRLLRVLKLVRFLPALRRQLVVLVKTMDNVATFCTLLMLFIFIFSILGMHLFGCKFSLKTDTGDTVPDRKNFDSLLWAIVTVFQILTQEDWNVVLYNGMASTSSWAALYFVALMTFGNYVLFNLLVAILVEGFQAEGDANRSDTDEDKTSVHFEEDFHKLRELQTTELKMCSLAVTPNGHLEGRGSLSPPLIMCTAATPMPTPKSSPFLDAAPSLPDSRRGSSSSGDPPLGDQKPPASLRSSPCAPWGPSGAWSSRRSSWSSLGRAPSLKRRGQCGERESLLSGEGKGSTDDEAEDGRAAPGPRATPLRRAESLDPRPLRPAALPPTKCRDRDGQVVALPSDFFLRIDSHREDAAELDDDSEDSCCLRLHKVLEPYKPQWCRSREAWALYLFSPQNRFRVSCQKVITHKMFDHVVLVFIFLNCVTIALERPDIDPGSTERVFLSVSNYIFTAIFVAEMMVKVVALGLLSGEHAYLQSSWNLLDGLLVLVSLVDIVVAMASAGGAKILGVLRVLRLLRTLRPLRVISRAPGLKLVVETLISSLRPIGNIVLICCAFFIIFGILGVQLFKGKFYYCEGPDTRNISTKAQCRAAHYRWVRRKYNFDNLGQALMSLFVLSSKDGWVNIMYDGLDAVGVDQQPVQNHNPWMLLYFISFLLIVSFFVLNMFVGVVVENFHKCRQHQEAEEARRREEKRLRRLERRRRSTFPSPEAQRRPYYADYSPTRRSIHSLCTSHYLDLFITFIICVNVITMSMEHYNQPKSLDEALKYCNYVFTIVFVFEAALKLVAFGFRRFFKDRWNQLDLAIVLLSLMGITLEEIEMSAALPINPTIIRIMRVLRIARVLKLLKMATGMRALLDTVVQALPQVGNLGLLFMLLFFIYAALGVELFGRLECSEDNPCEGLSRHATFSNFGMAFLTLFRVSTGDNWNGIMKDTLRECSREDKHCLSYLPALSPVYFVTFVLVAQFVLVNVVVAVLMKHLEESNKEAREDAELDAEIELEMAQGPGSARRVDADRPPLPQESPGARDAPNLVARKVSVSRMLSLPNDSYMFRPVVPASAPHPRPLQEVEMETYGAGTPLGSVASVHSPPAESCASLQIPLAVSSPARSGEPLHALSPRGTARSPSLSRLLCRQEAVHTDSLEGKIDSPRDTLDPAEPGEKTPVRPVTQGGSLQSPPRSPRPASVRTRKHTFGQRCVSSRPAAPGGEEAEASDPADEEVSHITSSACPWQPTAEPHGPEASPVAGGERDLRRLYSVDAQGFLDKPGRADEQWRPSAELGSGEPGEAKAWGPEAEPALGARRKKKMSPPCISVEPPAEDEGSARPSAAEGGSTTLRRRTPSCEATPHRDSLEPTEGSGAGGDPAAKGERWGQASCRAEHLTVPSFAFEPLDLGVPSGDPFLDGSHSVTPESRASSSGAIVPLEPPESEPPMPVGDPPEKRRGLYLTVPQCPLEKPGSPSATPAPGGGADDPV
Sequence of Neurotensin receptor type 1 (P30989 whole entry): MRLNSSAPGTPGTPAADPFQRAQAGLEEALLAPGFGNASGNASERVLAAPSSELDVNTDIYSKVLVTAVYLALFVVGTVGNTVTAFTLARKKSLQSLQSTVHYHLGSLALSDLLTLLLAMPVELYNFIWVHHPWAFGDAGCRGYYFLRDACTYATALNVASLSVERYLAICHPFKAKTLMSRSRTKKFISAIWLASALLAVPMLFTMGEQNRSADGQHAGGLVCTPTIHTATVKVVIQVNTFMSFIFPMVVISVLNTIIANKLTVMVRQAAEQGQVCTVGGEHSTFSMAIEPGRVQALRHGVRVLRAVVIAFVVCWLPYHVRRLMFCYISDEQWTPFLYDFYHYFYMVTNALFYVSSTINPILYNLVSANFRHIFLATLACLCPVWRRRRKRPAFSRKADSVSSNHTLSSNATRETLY
Sequence of Luciferin 4-monooxygenase (P08659 whole entry): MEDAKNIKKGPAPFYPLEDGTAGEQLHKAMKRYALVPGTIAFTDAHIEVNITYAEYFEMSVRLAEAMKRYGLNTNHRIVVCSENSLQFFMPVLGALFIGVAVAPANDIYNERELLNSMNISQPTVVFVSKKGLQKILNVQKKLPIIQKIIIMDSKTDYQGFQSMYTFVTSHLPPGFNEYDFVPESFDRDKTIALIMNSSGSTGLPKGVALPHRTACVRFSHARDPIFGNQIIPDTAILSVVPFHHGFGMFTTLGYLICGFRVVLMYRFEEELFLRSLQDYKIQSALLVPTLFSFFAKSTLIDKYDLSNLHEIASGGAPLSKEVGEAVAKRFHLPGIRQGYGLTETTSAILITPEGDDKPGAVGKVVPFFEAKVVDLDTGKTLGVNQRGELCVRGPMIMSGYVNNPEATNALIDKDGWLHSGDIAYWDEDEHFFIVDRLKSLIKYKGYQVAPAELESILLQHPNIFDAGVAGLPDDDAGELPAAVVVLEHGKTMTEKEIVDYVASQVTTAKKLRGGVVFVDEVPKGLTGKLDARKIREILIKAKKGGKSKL
Sequence of Nucleotide-binding oligomerization domain-containing protein 2 (Q9HC29 whole entry, the tested form may be a part): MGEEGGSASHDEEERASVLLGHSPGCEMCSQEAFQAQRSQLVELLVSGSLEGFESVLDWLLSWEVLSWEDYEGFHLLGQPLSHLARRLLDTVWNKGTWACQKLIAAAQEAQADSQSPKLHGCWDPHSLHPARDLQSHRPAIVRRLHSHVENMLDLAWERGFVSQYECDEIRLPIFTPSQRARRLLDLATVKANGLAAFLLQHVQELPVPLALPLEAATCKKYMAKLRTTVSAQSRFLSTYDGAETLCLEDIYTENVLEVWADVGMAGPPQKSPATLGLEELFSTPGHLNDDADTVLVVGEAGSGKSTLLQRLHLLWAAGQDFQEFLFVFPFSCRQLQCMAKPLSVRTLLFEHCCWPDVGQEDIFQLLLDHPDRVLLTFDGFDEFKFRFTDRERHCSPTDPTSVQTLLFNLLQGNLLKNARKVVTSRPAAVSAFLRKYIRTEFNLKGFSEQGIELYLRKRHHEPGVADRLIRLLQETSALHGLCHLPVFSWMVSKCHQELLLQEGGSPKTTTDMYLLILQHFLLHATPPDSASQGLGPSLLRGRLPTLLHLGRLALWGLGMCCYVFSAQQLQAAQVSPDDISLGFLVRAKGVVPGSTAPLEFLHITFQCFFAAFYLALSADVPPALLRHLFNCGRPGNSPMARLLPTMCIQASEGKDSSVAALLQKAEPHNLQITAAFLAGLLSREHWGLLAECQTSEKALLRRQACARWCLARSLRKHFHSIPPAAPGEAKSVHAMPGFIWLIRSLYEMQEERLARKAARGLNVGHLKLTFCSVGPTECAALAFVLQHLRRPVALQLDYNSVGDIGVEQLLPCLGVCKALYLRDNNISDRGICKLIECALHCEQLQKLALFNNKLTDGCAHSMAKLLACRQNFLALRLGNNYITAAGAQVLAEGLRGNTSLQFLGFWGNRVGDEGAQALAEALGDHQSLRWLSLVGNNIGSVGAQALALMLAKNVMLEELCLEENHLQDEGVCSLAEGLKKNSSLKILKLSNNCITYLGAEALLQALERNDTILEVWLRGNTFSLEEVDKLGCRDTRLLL
Sequence of Nonstructural protein 1 (Q194T2 whole entry): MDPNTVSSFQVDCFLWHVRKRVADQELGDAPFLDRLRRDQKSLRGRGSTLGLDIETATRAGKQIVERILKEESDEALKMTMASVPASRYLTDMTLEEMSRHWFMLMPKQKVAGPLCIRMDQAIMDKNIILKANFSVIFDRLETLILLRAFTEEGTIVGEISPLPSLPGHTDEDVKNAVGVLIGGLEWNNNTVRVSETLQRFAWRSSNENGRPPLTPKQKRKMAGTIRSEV
Sequence of DNA dC->dU-editing enzyme APOBEC-3G (Q9HC16 whole entry): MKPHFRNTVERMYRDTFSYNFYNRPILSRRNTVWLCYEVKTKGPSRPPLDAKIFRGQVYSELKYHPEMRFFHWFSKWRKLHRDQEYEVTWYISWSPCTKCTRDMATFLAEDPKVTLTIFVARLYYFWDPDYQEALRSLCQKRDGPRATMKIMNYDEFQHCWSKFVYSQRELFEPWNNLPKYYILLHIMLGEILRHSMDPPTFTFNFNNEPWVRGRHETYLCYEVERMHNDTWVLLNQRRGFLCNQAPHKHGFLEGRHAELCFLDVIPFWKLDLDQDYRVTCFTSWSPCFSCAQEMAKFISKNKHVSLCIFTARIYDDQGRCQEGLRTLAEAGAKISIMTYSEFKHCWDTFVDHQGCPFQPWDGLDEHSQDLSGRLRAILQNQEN

Cc1ccc(NC(=O)CSc2nnc(Cc3cccn3C)n2-c2ccc(F)cc2)cc1
EC50 [1]: 3.49 µM (active)

COc1ccccc1CC(=O)Nc1ccc2c(C)cc(=O)oc2c1
AC50 (CAAX prenyl protease 2): 34.5 µM (active)

COc1ccccc1OCCCOc1cccc(/C=C2\SC(=O)NC2=O)c1
IC50 (HEK293 [2]): 15.7 µM (active)
IC50 (HEK293 [3]): > 20 µM (inactive)
EC50 (HEK293 [4]): 9.43 µM (active)
IC50 (HEK293 [5]): > 20 µM (inactive)
IC50 (NS3): 3.82 µM (active)
EC50 [6]: 9.15 µM (active)

COc1ccc(C(=O)ON=C(N)c2ccccc2)cc1
EC50 [7]: 1.21 µM (active)
AC50 [8]: 17.2 µM (active)

CC(C)N1CCc2c(sc(NC(=O)c3cc(-c4cccs4)nc4ccccc34)c2C(N)=O)C1
IC50 [9]: > 40 µM (not active)
IC50 [10]: > 20 µM (inactive)
AC50 [11]: 13.2 µM (active)
CC50 [12]: 6.25 µM (active)
EC50 (Beta-galactosidase): > 40 µM (inactive)

Cc1ccc(S(=O)(=O)N2CCCC(NC(=O)N3CCN(c4ccccc4)CC3)C2)cc1 (stereo not drawn)
EC50 [1]: 8.79 µM (active)

COC(=O)/C(=C\Nc1ccc(Cl)cc1Cl)NC(=O)c1ccc(Cl)cc1Cl
CC50 [12]: > 40 µM (active)

COc1ccc(CNC(=O)CSCc2cnn(-c3ccccc3)c2-n2cccc2)cc1
EC50 [1]: 4.8 µM (active)

CCOC(=O)c1cc(-c2ccc(/C=C3/C(=O)N(c4ccc(C(=O)O)cc4)N=C3C)o2)ccc1Cl
CC50 (Vero [13]): 24.9 µM (active)
IC50 (Nonstructural protein 1): 66.1 µM (active)
CC50 (Vero [14]): > 25 µM (active)
EC50 [15]: 16 µM (active)
IC50 (Genome polyprotein): 21.2 µM (active)

CCOc1ccc(C(=O)Nc2cc(Cl)ccc2C(=O)O)cc1
IC50 (Hexokinase): 20.7 µM (active)

COC(=O)c1ccc(Cl)cc1NS(=O)(=O)c1ccc(OC)cc1
IC50 (Hexokinase): > 25 µM (inactive)

O=C(NCc1ccccc1)n1sc2ccccc2c1=O
IC50 (Hexokinase): 4.44 µM (active)

COc1ccc(-n2sc3cc(F)ccc3c2=O)cc1
IC50 [16]: 5.42 µM (inactive)

CCn1c(S)nnc1-c1ccc([N+](=O)[O-])cc1
AC50 (HeLa): 239 µM (active)
IC50 [17]: 9.77 µM (active)

O=C(COC(=O)c1ccccc1Cc1ccccc1)NC1CCS(=O)(=O)C1 (stereo not drawn)
AC50 (CAAX prenyl protease 2): 4.52 µM (active)

O=[N+]([O-])c1ccc2[nH]c(-c3ccccn3)nc2c1
CC50 [18]: 14.8 µM (active)
CC50 [19]: 13.4 µM (active)
CC50 [20]: 17.4 µM (active)
IC50 (cells): 42.1 µM (active)

N#CC1=C(c2ccccc2)/C(=C/c2ccccc2)OC1=O
CC50 [18]: > 20 µM (active)
EC50 (Streptokinase A): 2.38 µM (active)
CC50 [19]: > 40 µM (active)
AC50 [21]: 4.25 µM (active)
CC50 [22]: 24.1 µM (active)
EC50 (Streptococcus): > 150 µM (not active)
EC50 [23]: 10.6 µM (active)
IC50 (cells): 10 µM (active)
EC50 [15]: 6.66 µM (active)

CCNc1nc(NC(C)(C)C)nc(N2CCCCC2)n1
CC50 [19]: > 40 µM (active)
CC50 [20]: > 20 µM (active)
CC50 [22]: 13.4 µM (active)
CC50 (Vero [14]): > 25 µM (active)
IC50 (cells): 28.8 µM (active)
